According to patent US9238650B2, “Solid forms of a pyrido-pyrimidinium inner salt” (E. I. DU PONT DE NEMOURS AND COMPANY, priority 2012, dated 2016):
Entries after “also recorded” stand apart in the source; their conditions may differ. Where a name gives a salt, the structure may show the parent alone.

Tests used:
Type in all cases: physicochemical
[1] = Relative stability (non-competitive and competitive interconversion) of polymorph Forms A and B in various solvents at 22° C., solids analyzed by pXRD; conditions: concluded from conversion of Form B to Form A in solvents at 22° C.
Procedure: (§1) Polymorph Forms A and B of Compound 1 were subjected to non-competitive and competitive interconversion experiments. […] For the competitive experiments, polymorph Forms A and B were mixed together and studied for the potential conversion to the more thermodynamically stable form. The starting polymorph form(s) were mixed with various solvents for 5 days at 22° C., and then filtered. The filtrate was analyzed by HPLC to determine the solubility of Compound 1 in the test solvent. The solids were dried and analyzed by pXRD.
A detailed description of the individual experiments for Examples 6a to 6j is given below.
(§2) In Example 6a, Form B of Compound 1 (0.3 g) was mixed with acetone (5 g) at 22° C. for 5 days. The slurry was then filtered through a syringe filter (0.45 μm glass fiber, type Whatman GE Autovial) and dried in a vacuum oven at 40° C. for 48 hours. Analysis by pXRD indicated Form A of compound 1.
as §2, with “6b,” for “6a,”, “B (0.3 g) and Form A (0.01 g)” for “B”, “were” for “(0.3 g) was”, “Compound” for “compound”
In Example 6c, Form B (0.3 g) of Compound 1 was mixed with tetrahydrofuran (5 g) at 22° C. for 5 days. […]

[2] = Temperature-dependent X-ray powder diffraction of polymorph Form A; conditions: pure solid, heated from 25° C. to the melting point at 10° C. per minute
Procedure: To assess the stability of polymorph Form A of Compound 1 with respect to temperature, X-ray powder diffraction patterns were obtained while heating a sample of Form A from 25° C. to above its melting point. The measurement was conducted at the 5-IDD beam line at the Advanced Photon Source synchrotron located at the Argonne National Laboratory (Argonne, Ill., USA). A Differential-Scanning calorimeter (DSC, Model DSC600, Linkam Scientific Instruments, Tadworth, U.K.) was mounted in vertical orientation to allow insertion of the DSC into the X-ray beam. The DSC was positioned in the beam line to accept a 100-200 μm square beam under high vacuum. The standard quartz window was replaced with polyimide film (Kapton®, 8 μm thickness, DuPont, Wilmington, Del., USA). An internal thermocouple was installed for temperature recording. A circular charged couple device (CCD) detector (Model Mar165, 165 mm diameter, Marresearch GmbH, Norderstedt, Germany) was used to detect the X-rays scattered from the sample. The detector was equipped with an aluminum cone that covered the detector and extended 100 mm from the face of the detector. This cone was quipped with a beam stop support and 5×3 mm lead beam stop. The cone was continuously purged with helium to minimize air scattering. […]

[3] = Solid-liquid separation efficiency: time to complete filtration on a lab nutsche filter; conditions: for Filtration time: time required to complete filtration of 90 g from reaction mass
Procedure: In separate experiments, about 90 grams of Polymorph Forms A and B of Compound 1 were prepared according to PREPARATION EXAMPLE 1 and 2, respectively. The solids were filtered from their reaction mass using a lab nutsche filter. The times to complete the filtrations (indicated by no further liquid dripping from the filter) were measured and are reported in Table 12.

[4] = Particle size distribution by laser diffraction particle size analyzer after dispersion in deionized water; conditions: dispersed in deionized water; for D50: median particle size; for D[4, 3]: volume-weighted mean particle size
Procedure: After the observation of increased settling velocity of Polymorph Form A compared to Form B (see CHARACTERIZATION EXAMPLE 9), the particle size distributions of the two forms were measured. Form B of Compound 1 was prepared according to PREPARATION EXAMPLE 2. Some of the Form B thus prepared was converted to Form A according to PREPARATION EXAMPLE 5. The particle size distribution of both Form A and B samples were determined after dispersion in deionized water using a laser diffraction particle size analyzer (model Mastersizer 2000 by Malvern Instruments, Malvern, UK). The particle size distribution parameters D10, D50 and D90 are reported in Table 13 below, wherein D50 represents the median particle size of the distribution, i.e. 50% of the particles are smaller and 50% are larger than that size. D10 indicates the particle size at which 10% of all particles are smaller than that size. Similarly, D90 indicates the particle size at which 90% of all particles are smaller than that size. The volume-weighted mean particle sizes D[4,3] are also reported.

[5] = Crystal density by helium gas pygnometry
Source text: However, once Form B has converted to Form A in the slurry, the particles start to settle to the bottom of the flask rapidly after stirring is turned off indicating increased particle size of the Form A crystals. […] High particle size and settling velocities are important process advantages for solid-liquid separation operations in commercial manufacturing. Large average particle size improve filtration and centrifugation steps by increased filtration speeds, higher throughputs, lower propensity to filter cake cracking and resulting filtrate by-passing, increased cake wash efficiency and increased product purity.

[6] = Solubility of Compound 1 in the test solvent, filtrate analyzed by HPLC; conditions: 22° C., 5 days, label = starting polymorph form(s)
Procedure: HPLC was used to determine the purity of Compound 1 and intermediates. An Agilent 1100/1200 series HPLC system with DAD/UV detector and reverse-phase column (Agilent Zorbax® SB C8 (4.6×150) mm, 3.5 μm, Part No. 863953-906) was used. Flow rate was 1 mL/min, run time 27 min, injection volume 3.0 μL, and the column oven temperature was 40° C. A mobile phase gradient according to Table 1 was used wherein mobile phase A was 0.03% by volume orthophosphoric acid and mobile Phase B was acetonitrile (HPLC grade). Mobile phase A was prepared by thoroughly mixing 0.3 mL of orthophosphoric acid (AR grade) with 999.7 mL of deionized water. Standard solutions were prepared by weighing 22.0±2.0 mg of the analytical standard in duplicate into separate 50-mL volumetric flasks, dissolving and diluting with the diluent. Samples were prepared by weighing 40.0±2.0 mg of the sample into a 100 mL standard volumetric flask, dissolving and diluting with the diluent. For analysis, the HPLC system and column were equilibrated with initial mobile phase. In the chromatographic sequence, blank samples, standard samples and test samples were run. The retention time for Compound 1 was about 22.2 min. Peaks appearing in the blank sample were not integrated, all other peaks were integrated and a % purity reported from the sample chromatogram. For wt % determination the concentration of test sample was calibrated against the standard sample.
as §1

Filtration time [3]	D10 [4]	D90 [4]	D50 [4]	D[4, 3] [4]	density [5]	Concentration of Compound 1 in filtrate ([6]; acetone)	Concentration of Compound 1 in filtrate ([6]; ethyl acetate)	Concentration of Compound 1 in filtrate ([6]; tetrahydrofuran)	Concentration of Compound 1 in filtrate ([6]; toluene)	Concentration of Compound 1 in filtrate ([6]; water)	Filtration time relative to Polymorph Form A ([3]; about 90 grams)	Structure (SMILES)	Relative thermodynamic stability [1]	Stability of the crystal form with respect to temperature (pXRD while heating) [2]
0.9 min	13 μm	73 μm	34 μm	39 μm	1.597 g/mL							Cc1cccn2c(=O)c(-c3cc(Cl)cc(Cl)c3)c([O-])[n+](Cc3cnc(Cl)s3)c12 [Form A, 1-[(2-chloro-5-thiazolyl)methyl]-3-(3,5-dichlorophenyl)-2-hydroxy-9-methyl-4-oxo-4H-pyrido[1,2-a]pyrimidinium inner salt]	more thermodynamically stable than Form B	no crystal form conversion to another polymorph occurred; also recorded: physically and chemically stable in its pure solid form
						0.34 wt %	0.09 wt %	1.01 wt %	0.023 wt %	<0.01 wt %		Cc1cccn2c(=O)c(-c3cc(Cl)cc(Cl)c3)c([O-])[n+](Cc3cnc(Cl)s3)c12 [B + seed A, 1-[(2-chloro-5-thiazolyl)methyl]-3-(3,5-dichlorophenyl)-2-hydroxy-9-methyl-4-oxo-4H-pyrido[1,2-a]pyrimidinium inner salt]		
3.0 min	0.6 μm	19 μm	3.2 μm	6.8 μm	1.582 g/mL	0.34 wt %	0.18 wt %	1.03 wt %	0.049 wt %	<0.01 wt %	more than 3 times	Cc1cccn2c(=O)c(-c3cc(Cl)cc(Cl)c3)c([O-])[n+](Cc3cnc(Cl)s3)c12 [Form B, 1-[(2-chloro-5-thiazolyl)methyl]-3-(3,5-dichlorophenyl)-2-hydroxy-9-methyl-4-oxo-4H-pyrido[1,2-a]pyrimidinium inner salt]		
